Measurements as given in ChEMBL document CHEMBL1146429, “Stellettamide B, a new indolizidine alkaloid from a sponge of the genus Stelletta” (1997).
Active and inactive are the calls of the source. The rule behind the calls is not given here.

Legend:
Candida albicans = experiment: Antimicrobial activity against Candida albicans at 25 ug/mL by paper-disk method; type: functional; details: read-out: IZ
[1] = Induction of cleavage of mRNA at 50 ug/mL
[2] = Induction of cleavage of rRNA at 50 ug/mL

Row | Compound | zone of inhibition at 25 µg/mL (Candida albicans) [mm] | Activity [1] | Activity [2]
1 | CC(C)=CCC[C@@H](C)/C=C/C=C(\C)C(=O)NC(=N)NCCCCNC(=N)N [STELLETTADINE A] | 9 | Active | Active
2 | CC(C)=CCC[C@@H](C)/C=C/C=C(\C)C(=O)NC[C@@H]1CC[N+]2(C)CCCC[C@H]12 (stereo partly specified) [STELLETTAMIDE B] | 4 | Active | Active
